{"source": "patent US6649654B1", "about": "“Methods for identifying and using IKK inhibitors” (The Regents of the University of California, priority 1999, dated 2003)", "key": {"[1]": {"target": "T1, IKKβ (Homo sapiens, UniProt O14920)", "T1 sequence (O14920 1-756)": "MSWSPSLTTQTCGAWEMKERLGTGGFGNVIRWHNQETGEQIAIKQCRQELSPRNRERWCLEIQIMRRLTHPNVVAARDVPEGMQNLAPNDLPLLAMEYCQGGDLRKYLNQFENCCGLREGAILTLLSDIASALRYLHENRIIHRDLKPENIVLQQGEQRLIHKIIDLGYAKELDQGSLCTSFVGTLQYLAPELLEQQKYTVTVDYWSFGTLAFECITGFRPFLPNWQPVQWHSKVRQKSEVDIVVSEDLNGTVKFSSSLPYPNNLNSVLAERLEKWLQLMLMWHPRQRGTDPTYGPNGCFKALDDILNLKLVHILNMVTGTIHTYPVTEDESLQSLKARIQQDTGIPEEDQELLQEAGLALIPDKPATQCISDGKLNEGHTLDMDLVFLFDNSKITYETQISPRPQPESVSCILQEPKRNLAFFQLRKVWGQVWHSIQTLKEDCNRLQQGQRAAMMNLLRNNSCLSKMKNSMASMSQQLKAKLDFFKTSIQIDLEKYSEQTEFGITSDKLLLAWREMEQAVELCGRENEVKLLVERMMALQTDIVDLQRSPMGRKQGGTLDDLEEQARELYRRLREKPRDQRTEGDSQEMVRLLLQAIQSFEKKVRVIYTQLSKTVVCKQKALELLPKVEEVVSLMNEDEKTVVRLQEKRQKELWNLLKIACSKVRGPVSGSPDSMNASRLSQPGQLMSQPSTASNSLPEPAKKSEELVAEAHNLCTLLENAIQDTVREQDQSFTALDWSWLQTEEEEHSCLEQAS", "experiment": "Recombinant wild-type IKKβ (Sf9) kinase activity", "type": "biochemical", "design": "FLAG; made in house; host or cells: Sf9 (baculovirus)", "protocol": "In addition, recombinant IKKβ was expressed in Sf9 cells and purified as described (Zandi et al., supra). AA, PGs, LTB4, and T×B2 were added to washed imnmunoprecipitates of recombinant IKKβ in kinase buffer to a final volume of 500 μl. After 1.5 hours at 4° C., the immunoprecipitates were washed and the kinase activity determined. Western blot analysis was also performed as known in the art (See e.g., Rossi et al., supra).\nIn other experiments, purified recombinant IKKβ immobilized on beads with 15dPGJ2 or diluent were preincubated and extensively rinsed with kinase buffer lacking the inhibitor."}, "[2]": {"target": "T2, peroxisome proliferator-activated receptor-γ (PPAR-γ) (Homo sapiens, UniProt P37231)", "T2 sequence (P37231 1-505)": "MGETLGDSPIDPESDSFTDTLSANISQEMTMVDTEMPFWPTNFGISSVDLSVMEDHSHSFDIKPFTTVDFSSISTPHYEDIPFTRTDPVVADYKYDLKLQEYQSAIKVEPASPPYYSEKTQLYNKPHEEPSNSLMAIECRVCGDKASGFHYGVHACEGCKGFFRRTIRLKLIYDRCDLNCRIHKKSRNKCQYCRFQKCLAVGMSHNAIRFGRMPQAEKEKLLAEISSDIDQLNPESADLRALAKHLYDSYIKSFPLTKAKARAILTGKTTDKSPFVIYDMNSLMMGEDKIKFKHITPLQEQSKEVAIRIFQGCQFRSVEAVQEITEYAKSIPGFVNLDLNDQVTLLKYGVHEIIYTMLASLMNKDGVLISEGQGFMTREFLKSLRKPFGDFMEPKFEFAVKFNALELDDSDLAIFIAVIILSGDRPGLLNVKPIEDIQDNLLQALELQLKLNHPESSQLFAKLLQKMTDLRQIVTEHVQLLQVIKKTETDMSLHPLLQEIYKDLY", "details": "Ricote et al.; Jiang et al.; cited from earlier work"}, "[3]": {"target": "p38 (Homo sapiens, UniProt Q16539)", "sequence (Q16539 whole entry)": "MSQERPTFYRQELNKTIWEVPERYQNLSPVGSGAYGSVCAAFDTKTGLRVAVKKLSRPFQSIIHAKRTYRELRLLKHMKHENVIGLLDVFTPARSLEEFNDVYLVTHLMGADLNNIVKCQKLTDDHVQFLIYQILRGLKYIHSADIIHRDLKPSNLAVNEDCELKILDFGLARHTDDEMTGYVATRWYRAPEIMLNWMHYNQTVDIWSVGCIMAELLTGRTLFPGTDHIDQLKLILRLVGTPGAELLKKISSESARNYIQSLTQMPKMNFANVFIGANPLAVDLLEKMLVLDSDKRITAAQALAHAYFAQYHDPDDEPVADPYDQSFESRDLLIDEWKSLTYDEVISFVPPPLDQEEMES", "experiment": "p38 MAP kinase activation in TPA-stimulated Jurkat cells", "type": "cell-based", "design": "endogenous in cells; host or cells: Jurkat", "details": "24 μM PGA1, TPA", "protocol": "Cells used in the experiments described herein were cultured in either RPMI 1640 (Jurkat cells) or DMEM (HeLa and COS cells), supplemented with 10% FBS and antibiotics. Cells were stimulated with either 25 ng/ml TPA, 20 ng/ml recombinant TNFα, or 10 ng/ml interleukin 1β (Sigma). PGA1, 15dPGJ2, T×B2, LTB4, AA and other PGs (Cayman) dissolved in ethanol were used as well, as known in the art (See e.g., Rossi et al., 94:746-750 [1997]). Controls received equal amounts of ethanol. Transfections were performed using Lipofectamine Plus (GIBCO) for HeLa and COS cells and DEAE-dextran (Sigma) for Jurkat cells. Xpress-tagged NIK, Xpress-tagged MEKK1, HA-tagged IKKα, and HA-tagged IKKβ were also used (See e.g., Zandi et al., Science 281:1360-1363 [1998]; and Delhase et al., Science 284:309-313 [1999]). COX2 and cPLA2 expression vectors were obtained from Dr. L. Feng (See also, Hirose et al., J. Am. Soc. Nephrol., 9:408-416 [1998]). PGD synthase was cloned from HT29 colon carcinoma cell line cDNA by PCR and subcloned into a pCDNA3 vector. […]\nCell lysates were incubated with anti-IKKα (Pharmingen), anti-HA (12CA5; Pharmingen), anti-JNK1 (333.8; Pharmingen), or anti-p38 (New England Biolabs) for 2 hours. […] Endogenous IKK, HA-tagged IKKα, endogenous JNK1, and p38 activities were determined with GST-1κBα(1-54), GST-c-Jun(1-79), and GST-ATF2 as substrates. […]"}}}
{"smiles": "CCCCC/C=C/C=C1/C(=O)C=C[C@@H]1C/C=C\\CCCC(=O)O", "note": "[15dPGJ2, 15-deoxy-Δ^12-14-PGJ2]", "values": [{"measurement": "effect on recombinant wild-type IKKβ", "setting": "[1]; FIG. 6D", "result": "inhibitory"}, {"measurement": "inhibition after extensive washing (reversibility)", "setting": "[1]; recombinant IKKβ on beads pre-incubated with inhibitor, rinsed with kinase buffer", "result": "remained inhibited"}, {"measurement": "activation of PPAR-γ", "setting": "[2]", "result": "activate"}]}
{"smiles": "CCCCC[C@H](O)/C=C/[C@H]1C=CC(=O)C1CCCCCCC(=O)O", "note": "(stereo partly shown) [PGA1, prostaglandin A1]", "values": [{"measurement": "effect on activation of p38 MAP kinase", "setting": "[3]", "result": "did not inhibit"}]}
